# Legend:
# Assay in all cases: Antifungal activity (GI80), growth inhibition in YPD20 medium by absorbance at 600 nm
# Assay type in all cases: cell-based
# C. albicans ATCC MYA-573 = details: minimum concentration for at least 80% cell growth inhibition, 37° C., absorbance 600 nm; for IC80: Candida albicans, read-out: GI80 (μg/ml) C. albicans ATCC MYA-573
# Protocol: (§1) The antifungal activity of the compounds of the invention was determined according to the method mentioned below.
# (§2) An YPD20 medium (1% yeast extract, 2% peptone, 20% glucose) was used,
# (§3) (2) Preparation of Cell Liquid for Inoculation:
# (§4) Cells incubated overnight with Sabouraud dextrose agar at 30° C. were suspended in 0.1% Tween 80-added saline, and then added to a concentrated medium (1.33% yeast extract, 2.67% peptone, 13.33% glucose) so that the final cell concentration could be 5×10^3 cells/ml, thereby preparing a cell liquid for inoculation.
# (§5) (3) Production of Chemical Dilution Plate:
# (§6) A metered sample was dissolved in dimethyl sulfoxide, and a 2-fold dilution series was prepared using dimethyl sulfoxide. A chemical dilution of 2 μl each was added to a flat-bottom 96-well plate with 40% glucose (48 μl) put in each well, thereby producing a chemical dilution plate.
# (§7) (4) Inoculation and Cultivation of Cell Liquid:
# (§8) The cell liquid (150 μl) prepared in (2) was added to the chemical dilution plate produced in (3), followed by aerobic static cultivation at 37° C.
# (§9) (5) Determination of Antifungal Activity (GI80 Value):
# (§10) After cultivation for […], the plate was stirred, and its absorbance (600 nm) was measured. Based on the absorbance as the index, the minimum chemical concentration for at least 80% cell growth inhibition relative to the cell growth in the chemical-free well was computed as a GI80 value.
# C. albicans ATCC90028 = details: 37° C., absorbance 600 nm; for GI80 (μg/ml) C. albicans ATCC90028: minimum concentration for at least 80% cell growth inhibition; for IC80: Candida albicans, ATCC90028, minimum concentration for at least 80% cell growth inhibition, read-out: GI80 (μg/ml) C. albicans ATCC90028
# Protocol: as §1, §2, §3, §4, §5, §6, §7, §8, §9, §10
# C. glabrata ATCC48435 = details: 37° C., absorbance 600 nm; for GI80 (μg/ml) C. glabrata ATCC48435: minimum concentration for at least 80% cell growth inhibition; for IC80: Nakaseomyces glabratus, ATCC48435, minimum concentration for at least 80% cell growth inhibition, read-out: GI80 (μg/ml) C. glabrata ATCC48435
# Protocol: as §1, §2, §3, §4, §5, §6, §7, §8, §9, §10
SMILES,GI80 (μg/ml) C. albicans ATCC MYA-573 (C. albicans ATCC MYA-573) [µg/mL],GI80 (μg/ml) C. albicans ATCC90028 (C. albicans ATCC90028) [µg/mL],GI80 (μg/ml) C. glabrata ATCC48435 (C. glabrata ATCC48435) [µg/mL],IC80 (C. albicans ATCC MYA-573) [µg/mL],IC80 (C. albicans ATCC90028) [µg/mL],IC80 (C. glabrata ATCC48435) [µg/mL]
"CN[C@H]1CCN(c2c(-c3csc(C)n3)c(C)c(C#N)c3nc(C(=O)N(C)C)oc23)C1 [Example 158, 4-Cyano-N,N,5-trimethyl-7-[(3S)-3-(methylamino)pyrrolidin-1-yl]-6-(2-methyl-1,3-thiazol-4-yl)-1,3-benzoxazole-2-carboxamide]",2,0.5,0.25,–,–,–
"Cc1c(-c2ccccc2)c(N2CC[C@H](N(C)C)C2)c2oc(Cc3ccco3)nc2c1C#N [Example 122, 7-[(3S)-3-(Dimethylamino)pyrrolidin-1-yl]-2-(2-furylmethyl)-5-methyl-6-phenyl-1,3-benzoxazole-4-carbonitrile]",–,–,–,0.5,0.5,0.125
"Cc1c(-c2cc(F)cc(F)c2)c(N2CC[C@H](N(C)C)C2)c2oc(C3CC3)nc2c1C#N [Example 82, 2-Cyclopropyl-6-(3,5-difluorophenyl)-7-[(3S)-3-(dimethylamino)pyrrolidin-1-yl]-5-methyl-1,3-benzoxazole-4-carbonitrile]",–,–,–,0.125,0.063,0.032
"CNC1=CC(c2c(-c3ccccc3)c(C)c(C#N)c3nc(C(=O)N(C)C)oc23)CC1 (stereo not drawn) [Example 156-1, 4-Cyano-N,N,5-trimethyl-7-[3-(methylamino)cyclopent-2-enyl]-6-phenyl-1,3-benzoxazole-2-carboxamide]",–,–,–,0.25,0.25,0.063
"Cc1c(-c2ccccc2)c(N2CC[C@H](N(C)C)C2)c2oc(-c3nccs3)nc2c1C#N [Example 93, 7-[(3S)-3-(Dimethylamino)pyrrolidin-1-yl]-5-methyl-6-phenyl-2-(1,3-thiazol-2-yl)-1,3-benzoxazole-4-carbonitrile]",–,–,–,0.125,0.125,0.032
"Cc1c(-c2ccccc2)c(N2CC[C@H](N(C)C)C2)c2oc(-c3ccco3)nc2c1C#N [Example 34, 7-[(3S)-3-(Dimethylamino)pyrrolidin-1-yl]-2-(2-furyl)-5-methyl-6-phenyl-1,3-benzoxazole-4-carbonitrile]",–,–,–,0.25,0.25,0.032
"OC(Cn1cncn1)(Cn1cncn1)c1ccc(F)cc1F [FCZ, Fluconazole, reference compound]",–,–,–,> 4,0.25,> 4
"CC(=O)N(C)c1nc2c(C#N)c(C)c(-c3ccccc3)c(N3CC[C@H](N(C)C)C3)c2o1 [Example 54, N-{4-Cyano-7-[(3S)-3-(dimethylamino)pyrrolidin-1-yl]-5-methyl-6-phenyl-1,3-benzoxazol-2-yl}-N-methylacetamide]",–,–,–,0.25,0.125,0.063
"Cc1c(-c2ccccc2)c(N2CC[C@H](N(C)C)C2)c2oc(N(C)C(C)(C)C)nc2c1C#N [Example 62, 2-(N-tert-Butyl-N-methylamino)-7-[(3S)-3-(dimethylamino)pyrrolidin-1-yl]-5-methyl-6-phenyl-1,3-benzoxazole-4-carbonitrile]",–,–,–,0.063,0.063,0.032
"Cc1c(-c2ccsc2)c(N2CC[C@H](N(C)C)C2)c2oc(C3CC3)nc2c1C#N [Example 144-1, 2-Cyclopropyl-7-[(3S)-3-(dimethylamino)pyrrolidin-1-yl]-5-methyl-6-(thiophen-3-yl)-1,3-benzoxazole-4-carbonitrile]",–,–,–,0.25,0.25,0.032
CNC[C@H]1CCN1c1c(-c2ccccc2)c(C)c(C#N)c2nc(C(=O)N(C)C)oc12 [Example 155],2,0.5,0.125,–,–,–
"Cc1c(-c2ccccc2)c(N2CCC[C@H]2CN(C)C)c2oc(C3CC3)nc2c1C#N [Example 154, 2-Cyclopropyl-7-{(2S)-2-[(dimethylamino)methyl]pyrrolidin-1-yl}-5-methyl-6-phenyl-1,3-benzoxazole-4-carbonitrile]",–,–,–,1,1,0.25
"COc1cccc(-c2c(C)c(C#N)c3nc(C4CC4)oc3c2N2CC[C@H](N(C)C)C2)c1 [Example 144-11, 2-Cyclopropyl-7-[(3S)-3-(dimethylamino)pyrrolidin-1-yl]-6-(3-methoxyphenyl)-5-methyl-1,3-benzoxazole-4-carbonitrile]",–,–,–,0.5,0.25,0.125
"CN[C@H]1CCN(c2c(-c3ccccc3)c(CF)c(C#N)c3nc(C4CC4)oc23)C1 [Example 140, 2-Cyclopropyl-5-fluoromethyl-7-[(3S)-3-(methylamino)pyrrolidin-1-yl]-6-phenyl-1,3-benzoxazole-4-carbonitrile]",–,–,–,0.5,0.5,0.125
"Cc1c(-c2ccccc2)c(N2CC[C@H](N(C)C)C2)c2oc([C@@H]3C[C@H]3C(=O)N(C)C)nc2c1C#N (relative stereo) [Example 135, (1R*,2R*)-2-[4-Cyano-7-((S)-3-dimethylamino-pyrrolidinyl)-5-methyl-6-phenyl-benzoxazol-2-yl]-cyclopropanecarbonyldimethylamide]",0.125,0.125,0.063,–,–,–
CN[C@H]1CCN(c2c(-c3csc(C)n3)c(C)c(C#N)c3nc(C(=O)N(C)C)oc23)C1 [Example 52],1,1,0.25,–,–,–
"Cc1c(-c2ccccc2)c(N2CC[C@H](N(C)C)C2)c2oc(C3CCC3)nc2c1C#N [Example 106, 2-Cyclobutyl-7-[(3S)-3-(dimethylamino)pyrrolidin-1-yl]-5-methyl-6-phenyl-1,3-benzoxazole-4-carbonitrile]",–,–,–,0.125,0.063,< 0.016
"Cc1c(-c2ccccc2)c(N2CC[C@H](N(C)C)C2)c2oc(C(=O)N(C)CC(=O)N(C)C)nc2c1C#N [Example 50, 4-Cyano-N-[2-(dimethylamino)-2-oxoethyl]-7-[(3S)-3-(dimethylamino)pyrrolidin-1-yl]-N,5-dimethyl-6-phenyl-1,3-benzoxazole-2-carboxamide]",–,–,–,2,2,0.25
"Cc1c(-c2ccccc2)c(N2CC[C@H](N(C)C)C2)c2oc(C(C)(C)COCc3ccccc3)nc2c1C#N [Example 13, 2-[2-(Benzyloxy)-1,1-dimethylethyl]-7-[(3S)-3-(dimethylamino)pyrrolidin-1-yl]-5-methyl-6-phenyl-1,3-benzoxazole-4-carbonitrile]",–,–,–,0.125,0.063,0.032
"Cc1c(-n2cccc2)c(N2CC[C@H](N(C)C)C2)c2oc(C3CC3)nc2c1C#N [Example 151, 2-Cyclopropyl-7-[(3S)-3-(dimethylamino)pyrrolidin-1-yl]-5-methyl-6-(pyrrol-1-yl)-1,3-benzoxazole-4-carbonitrile]",–,–,–,1,2,0.25
"Cc1c(-c2ccccc2)c(N2CC[C@H](N(C)C)C2)c2oc(C(=O)N(C)CCO)nc2c1C#N [Example 49, 4-Cyano-7-[(3S)-3-(dimethylamino)pyrrolidin-1-yl]N-(2-hydroxyethyl)-N,5-dimethyl-6-phenyl-1,3-benzoxazole-2-carboxamide]",–,–,–,0.5,0.5,0.063
